Data on 50 compounds can be found in PubChem BioAssay AID1996.

Structures are written as SMILES. Values after ≈ are worked out from the molar mass of the structure shown.

For this data set the following is noted: buffer; pH 7.4; 200.0 µM.
In the case of `COc1ccc(CC(=O)NCCCSc2ccccc2)cc1OC`, the solubility (kinetic) – broadly, the concentration staying in solution when a stock, usually in DMSO, is diluted into the medium – was 45.9 µg/mL (≈ 133 µM).

`Fc1ccccc1N1CCN(Cc2cnc(Cl)s2)CC1` registered a kinetic solubility of 37.1 µg/mL (≈ 119 µM).

For the compound `CSC(=Nc1ccccc1)C(C#N)c1nc2ccccc2[nH]1` (stereo not given), the solubility (kinetic) was found to be 0.3 µg/mL (≈ 0.979 µM).

The compound `S=C(NCc1ccncc1)Nc1cc(Cl)cc(Cl)c1` gave a kinetic solubility of 5.6 µg/mL (≈ 17.9 µM). This solubility kinetic is about 19-fold higher than that of the compound before.

`O=C(NCc1ccc2c(c1)OCO2)Nc1ccc([N+](=O)[O-])cc1` gave a kinetic solubility of 0.9 µg/mL (≈ 2.85 µM). Compared with the last compound, the solubility kinetic is about 6.2-fold lower.

`Cc1ccc(S(=O)(=O)/N=C(/Nc2cccc(O)c2)c2ccccc2)cc1` came in with a kinetic solubility of more than 55 µg/mL.

On to `CC1CCN(S(=O)(=O)c2cccc(C(=O)Nc3ccccc3)c2)CC1`, for which the solubility (kinetic) came out at 1.3 µg/mL (≈ 3.63 µM).

Take `CCN1C(=O)c2cccc3c(Cl)ccc1c23`: the kinetic solubility came out at 7 µg/mL (≈ 30.2 µM).

`C=CC[C@H]1CC(C)=C[C@H](CC=C)[NH2+]1.[Cl-]` yielded a kinetic solubility of more than 32.1 µg/mL.

For `CC1=CC(C)(C)NC(=O)N1c1ccc(C)cc1`, the kinetic solubility was more than 34.5 µg/mL.

As for `O=C(NCCCNC(=O)c1ccc(Cl)cc1Cl)c1ccco1`, the solubility (kinetic) was 50.1 µg/mL (≈ 147 µM).

`Cc1nc(SCC(=O)N2CCCCC2)c2c(C)c(C)sc2n1` displayed a solubility (kinetic) of 33.7 µg/mL (≈ 100 µM).

On to `O=C1Cc2ccccc2C(=O)N1c1cccc(Cl)c1`, for which the solubility (kinetic) is more than 40.8 µg/mL.

`CN1CCN(c2c(/C=N/O)c3ccccc3n2C)CC1`: the kinetic solubility was more than 40.9 µg/mL.

In turn, `COc1ccccc1CNC(=O)c1sccc1C` registered a solubility (kinetic) of 26.6 µg/mL (≈ 102 µM).

Compound `COc1ccc(NC(=O)C2CCCN(S(C)(=O)=O)C2)cc1Cl` (stereo not given) gave a kinetic solubility of 8.4 µg/mL (≈ 24.2 µM).

Consider `O=C(O)Cc1c(-c2ccccc2)c2cc(Br)ccc2[nH]c1=O`, for which the solubility (kinetic) amounted to 50.2 µg/mL (≈ 140 µM).

Regarding `COc1ccc(-c2noc(-c3ccc(Br)o3)n2)cc1`, the kinetic solubility was less than 0.3 µg/mL.

For `Cc1ccc(NC(=S)c2ccc3ccccc3n2)c(C)c1`, the kinetic solubility is less than 0.3 µg/mL.

`COc1ccc(-c2nc3ccccc3c(=O)n2CCc2ccc(O)cc2)cc1` yielded a solubility (kinetic) of 12.4 µg/mL (≈ 33.3 µM).

Regarding `NC(=O)C1CCN(C(=O)/C=C/c2cc(Br)ccc2F)CC1`, the solubility (kinetic) worked out at 47.7 µg/mL (≈ 134 µM).

`COC(=O)N1c2ccccc2C=Cc2ccccc21`: the kinetic solubility was more than 37.7 µg/mL.

In turn, `COc1ccccc1-c1nc(C#N)c(N2CC(C)CC(C)C2)o1` (stereo not given) returned a kinetic solubility of 1.5 µg/mL (≈ 4.82 µM).

Compound `O=C(COC(=O)c1cnc(Cl)c(Cl)c1)Nc1cccc(S(=O)(=O)N2CCOCC2)c1` displayed a kinetic solubility of 38.9 µg/mL (≈ 82 µM). This solubility kinetic is about 26-fold higher than that of the compound before.

The compound `Cn1c(=O)c(C(=O)c2ccc(S(C)(=O)=O)c(Cl)c2Cl)c(O)c2ccccc21` gave a solubility (kinetic) of more than 63.9 µg/mL.

In turn, `COc1ccc(-c2cc(C#N)nc(Cl)n2)cc1` yielded a kinetic solubility of 1.3 µg/mL (≈ 5.29 µM).

Take `CN(C(=O)COC(=O)Cc1ccc(Cl)cc1)C1CCCCC1`: the solubility (kinetic) is more than 48.6 µg/mL.

Regarding `N#Cc1c(N)n(-c2ccc(O)cc2)c2nc3ccccc3nc12`, the kinetic solubility was determined as 1.2 µg/mL (≈ 3.98 µM).

As to `CC(C)c1ccc(NC2CCCN(C(=O)c3ccncc3)C2)cc1` (stereo not given), the solubility (kinetic) was 47.1 µg/mL (≈ 146 µM).

On to `Cn1cnc2c(N/N=C/c3cccs3)ncnc21`, for which the kinetic solubility was more than 38.7 µg/mL.

For `O=C(CSCc1c(F)cccc1Cl)NCc1ccncc1`, the kinetic solubility was more than 48.7 µg/mL.

On to `CC(=O)Nc1ccc(NC(=O)CSCc2ccccc2Cl)cc1`, for which the kinetic solubility came to 12.7 µg/mL (≈ 36.4 µM).

Turning to `O=S(=O)(Nc1ccc(Nc2ccccc2)cc1)c1ccc(F)cc1`, the solubility (kinetic) amounted to 3.5 µg/mL (≈ 10.2 µM). Against the preceding compound, the solubility kinetic is about 3.6-fold lower.

`COc1ccc(-n2c(SC)nc3sc4c(c3c2=O)CCN(C)C4)cc1` gave a kinetic solubility of 34.8 µg/mL (≈ 93.2 µM).

Take `O=[N+]([O-])c1ccccc1S(=O)(=O)NC1CC2CCC1C2` (stereo not given): the solubility (kinetic) was more than 44.5 µg/mL.

As to `CC(C)Cn1c(N)c(C(=O)COC(=O)c2ccc(Br)cc2)c(=O)n(C)c1=O`, the kinetic solubility turned out to be 8.8 µg/mL (≈ 20.1 µM).

In turn, `COc1ccc(Br)cc1C(=O)Nc1ccccc1N1CCCC1` displayed a kinetic solubility of less than 0.4 µg/mL.

`COc1ccc(N2C(=O)CC(c3ccc([N+](=O)[O-])cc3)C2=O)cc1` (stereo not given) returned a kinetic solubility of 14.9 µg/mL (≈ 45.7 µM).

Compound `O=C(Cc1ccc([N+](=O)[O-])cc1)Nc1cccnc1` gave a solubility (kinetic) of more than 38.6 µg/mL.

In turn, `CCOC(=O)C1=C(C)OC(N)=C(C#N)C1c1cc(SCC)oc1C` (stereo not given) yielded a kinetic solubility of 23.9 µg/mL (≈ 68.6 µM).

On to `O=C1CCc2ccc(NC(=O)C3CC3)cc2N1`, for which the solubility (kinetic) is more than 34.5 µg/mL.

Compound `Cc1ccc(NC(=O)COC(=O)c2ccc3c(c2)OCO3)c(C)c1` gave a kinetic solubility of less than 0.7 µg/mL.

`O=C1NC(=Nc2cccnc2)S/C1=C\c1cccc(F)c1` had a kinetic solubility of 3.2 µg/mL (≈ 10.7 µM).

As to `Cc1noc(C)c1S(=O)(=O)N1CCCC1C(=O)O` (stereo not given), the kinetic solubility is more than 41.1 µg/mL.

`COc1ccc(NS(=O)(=O)c2cccc(NC(=O)COc3ccccc3[N+](=O)[O-])c2)cc1` gave a solubility (kinetic) of 2.9 µg/mL (≈ 6.34 µM).

The compound `O=C1c2ccccc2C(=O)N1CC(O)COc1ccc(Cl)cc1` (stereo not given) returned a kinetic solubility of 6.1 µg/mL (≈ 18.4 µM). Against the preceding compound, the solubility kinetic is about 2.1-fold higher.

In the case of `O=C(C[n+]1cccc(O)c1)NCc1ccc(Cl)cc1.[Cl-]`, the kinetic solubility was more than 47 µg/mL.

Compound `COc1cccc(Oc2ccc(C(F)(F)F)cc2NC(=O)CN2C(=O)NC3(CCCC3)C2=O)c1` yielded a solubility (kinetic) of 2.7 µg/mL (≈ 5.66 µM).

Take `COc1ccccc1CNC(=O)c1ccc2ccccc2n1`: the kinetic solubility came out at 15.8 µg/mL (≈ 54 µM).

Turning to `CC(=O)c1ccc(N2CCN(C(=O)c3ccc4[nH]c(C)c(C)c4c3)CC2)cc1`, the kinetic solubility stood at 1.6 µg/mL (≈ 4.26 µM).
